From patent US20090247420A1, “METHOD FOR ENCODING AND SCREENING COMBINATORIAL LIBRARIES” (priority 2005, published 2009)

Columns and labels:
[1] = target: T1, ImmunoPure avidin (Pierce) outfitted with xanthone ET-sensitizer (Gallus gallus, UniProt P02701); test: Photolytic tag-release binding screen of the tag-encoded model mini-library with avidin-xanthone conjugate in DPC micelles, GCMS detection of released dithiane tags; settings: for dithiane tags encoding the library member detected in the GCMS chromatogram after the photolytic assay: dithiane-aldehyde adduct tags, 0.7 mM each tagged library member, 23 μM protein, 155 mM DPC, incubated 1 hour, irradiated 4 hours, 335 nm long pass filter, hexane extract
T1 construct: purchased Pierce
T1 sequence (P02701 25-152): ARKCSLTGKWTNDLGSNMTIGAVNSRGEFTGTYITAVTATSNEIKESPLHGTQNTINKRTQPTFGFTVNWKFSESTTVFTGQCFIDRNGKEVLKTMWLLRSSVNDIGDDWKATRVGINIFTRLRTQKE
Experimental: The receptor, ImmunoPure® avidin (Pierce), was outfitted with xanthone as an ET-sensitizer. The N-hydroxysuccinimide ester of 11-(xanthone-2-carboxamido)undecanoic acid was coupled to avidin in a 20 mM sodium phosphate buffer according to a described procedure (Wilchek, Methods Enzymol), with subsequent purification on a Sephadex G-25 column. […] Tethering the xanthone-based sensitizer to avidin is no different from outfitting a receptor with a fluorophore for the conventional on-the-bead fluorescence-guided assays.
The screening volume was compartmentalized with micellar detergent, dodecyl phosphocholine (DPC), preventing indiscriminant collisional quenching of avidin-tethered xanthone by unbound molecules and thus limiting the ET sensitization exclusively to the bound host-guest complex. Besides the fact that amphiphiles displaying phosphocholine are common in biological settings, utilization of DPC micelles offers a number of additional benefits: (i) it ensures that the screening is always compatible with aqueous media, regardless of aqueous solubility of the tested libraries; (ii) it allows the design of the tagging system to be centered around readily available hydrophobic alkyl dithianes, which can be selectively extracted after irradiation with hexane or other non-polar solvents for unobstructed GCMS analysis; (iii) it spatially segregates the photofragmentation chemistry from molecular recognition, eliminating potential interference between them; (iv) it restricts the photochemistry to the micelle interior improving quantum efficiency of fragmentation, as it is known to increase in the non-polar environment; and, finally, (v) the micelle-assisted design offers an option of solubilizing certain target proteins, which are not water soluble. While not an issue with avidin, this functionality may be important in assaying insoluble membrane proteins, as recognized in the art.
A typical screening procedure involved solubilization of the mini-library, approximately 0.5 mg per tagged compound, in a 0.6 mL aqueous solution containing 60 mg of DPC. To this clear micellar solution 0.5 mL of avidin-xanthone conjugate was added, so the final concentrations were 0.7 mM of each library member carrying one tag (6.3 mM total), 23 μM protein and 155 mM DPC. The micelle-embedded molecules had apparent translational diffusion coefficients of 7×10^−7 cm^2s^−1, as measured with spin-echo pulse field gradient (PFG) ^1H NMR. […] Then the mixture was extracted with 0.5 mL of hexane, concentrated to 100 μL and analyzed by GCMS.
The generality of this approach is not limited to the tagging assemblies based on dithiane-aldehyde adducts. […] None of the other six dithianes were detected in the hexane extract after irradiation. […]

[2] = Benzophenone-sensitized photofragmentation of triazole 22 and its photostability without sensitizer; assay type: physicochemical
Experimental: To this end 3a was coupled with propargyl amine, providing the acetylenic tagging component S20 for the azide-acetylene click pair. Another readily available tag series was prepared from commercially available acetylenic benzaldehyde as shown in Scheme 12. The Staudinger ligation produces the benzamide linkage, found in compounds 4, 6 and 10, for example. Acetylene-azide click chemistry yields triazoles. […] Triazole 22 was unchanged after prolonged irradiation in the absence of the ET-sensitizer, showing no self-cleavage at wavelengths above 330 nm. This is a critically important finding because premature self-cleavage is detrimental to screening, as it produces false positives.

NCCCCCCCCCCC(=O)O [aminoundecanoic acid, 11-aminoundecanoic acid]
dithiane tags encoding the library member detected in the GCMS chromatogram after the photolytic assay [1]: not discernible at all

O=C(O)CCCC[C@@H]1SC[C@@H]2NC(=O)N[C@@H]21 [biotin]
dithiane tags encoding the library member detected in the GCMS chromatogram after the photolytic assay [1]: detected | dithianes encoding the library member detected in the GCMS trace of the hexane extract after irradiation ([1]; mini-library tagged with nine thio ortho esters (19), three tags per member, DPC micellar solution, avidin-xanthone conjugate): showed only the dithianes encoding biotin

COC(=O)CCCCCCCCCn1cc(-c2ccc(C(O)C3(C)SCCCS3)cc2)nn1 (stereo not drawn) [compound 22]
stability to irradiation (self-cleavage) ([2]; prolonged irradiation in the absence of the ET-sensitizer, wavelengths above 330 nm): unchanged | quantum efficiency of methyl dithiane release ([2]; upon benzophenone sensitization, compared with the parent (unsubstituted) benzaldehyde adduct): very similar to the parent (unsubstituted) benzaldehyde adduct

N[C@H]1C(O)O[C@H](CO)[C@@H](O)[C@@H]1O (stereo partly drawn) [glucosamine]
dithiane tags encoding the library member detected in the GCMS chromatogram after the photolytic assay [1]: not discernible at all
